Data taken from patent US20190100534A1, “Cephem Compounds with Latent Reactive Groups” (Gladius Pharmaceuticals, Inc., priority 2017, published 2019).

Legend:
Test in all cases: MIC determination, isogenic E. coli strains
Format in all cases: cell-based
E. coli J53 Alone = settings: for Mimimum Inhibitory Concentrations, J53 Alone: CAMH broth, 20 μM Apo-Transferrin, 37° C., 18 hours; for MIC: Escherichia coli, J53ALONE, 18 h, read-out: Mimimum Inhibitory Concentrations, J53 Alone
Experimental: (§1) Sterile technique was used throughout these experiments. Suspensions of organisms were removed from storage (−80° C.) and partially thawed. Partially thawed organisms (1 μL) were inoculated into 3 mL sterile LB Broth in a sterile culture tube and capped, then cultured at 37° C. with shaking for 4-5 hours until the optical density at 600 nm (OD600) was greater than 0.1 on a single beam spectrophotometer.
(§2) The concentration of organisms was adjusted to 0.08-0.1 OD600 (0.5 McFarland units) by dilution with sterile cation-adjusted Meuller-Hinton (CAMH) broth. The suspensions were used within 30 minutes of preparation.
(§3) A stock solution was made of each test compound by measuring 6.4 mg of the compound on an analytical balance and dissolving it in DMSO (1 mL) to get a transparent solution. The solutions were stored at −20° C. and thawed prior to use.
(§4) Sterile CAMH broth (200 μL) containing 20 μM Apo-Transferrin was pipetted into the first row of 8 columns of a sterile, round-bottomed, transparent, 96-well microplate using an 8-channel pipette equipped with sterile tips. One hundred μL was pipetted into the wells of the remaining 11 rows.
(§5) With an 8-channel pipette equipped with sterile tips, 100 μL of the first row solution was transferred to the second row and mixed. The process was repeated for the second to third rows and continued through row 11. One hundred μL from row 11 was removed and discarded so that all 12 rows contained 100 μL. Row 12 contained no compound and rows 1-11 contained 64, 32, 16, 8, 4, 2, 1, 0.5, 0.25, 0.125, […] of a given compound.
(§6) Inoculant suspensions (0.5 μL) were added to the 12 wells of each column. The plates were then covered and incubated at 37° C. overnight for 18 hours.
(§7) For each organism the MIC was determined by identifying the transparent well with the lowest test compound concentration.
(§8) The gene sequence for each beta-lactamase enzyme was synthesized and inserted into the pBC-SK(+) plasmid by GenScript, a commercial service. E. coli J53 was transformed with each plasmid via electroporation and resistant transformants were selected on agar plates containing 50 micrograms/mL ampicillin. The selected transformants were stored at −80 degrees C. in 20% glycerol.

[1] = tested on: Isogenic E. coli J58 strain carrying DHA-1; settings: for Mimimum Inhibitory Concentrations, DHA-1: isogenic E. coli strain, CAMH broth, 20 μM Apo-Transferrin, 37° C., 18 hours; for MIC: Escherichia coli, 18 h, read-out: Mimimum Inhibitory Concentrations, DHA-1
Experimental: as §1, §2, §3, §4, §5, §6, §7, §8

[2] = tested on: Isogenic E. coli J58 strain carrying TEM-26; settings: for Mimimum Inhibitory Concentrations, TEM-26: isogenic E. coli strain, CAMH broth, 20 μM Apo-Transferrin, 37° C., 18 hours; for MIC: Escherichia coli, 18 h, read-out: Mimimum Inhibitory Concentrations, TEM-26
Experimental: as §1, §2, §3, §4, §5, §6, §7
TEM-26 (Group 2be beta-lactamase, hydrolyzes extended spectrum cephalosporins and monobactams), [25];
as §8

[3] = tested on: Isogenic E. coli J58 strain carrying SHV-1; settings: for Mimimum Inhibitory Concentrations, SHV-1: isogenic E. coli strain, CAMH broth, 20 μM Apo-Transferrin, 37° C., 18 hours; for MIC: Escherichia coli, 18 h, read-out: Mimimum Inhibitory Concentrations, SHV-1
Experimental: as §1, §2, §3, §4, §5, §6, §7
SHV-1 (Class A, Group 2b beta-lactamase, hydrolyzes penicillins and early cephalosporins);
as §8

[4] = tested on: Isogenic E. coli J58 strain carrying CTX-M-14; settings: for Mimimum Inhibitory Concentrations, CTX-M-14: isogenic E. coli strain, CAMH broth, 20 μM Apo-Transferrin, 37° C., 18 hours; for MIC: Escherichia coli, 18 h, read-out: Mimimum Inhibitory Concentrations, CTX-M-14
Experimental: as §1, §2, §3, §4, §5, §6, §7
(§9) CTX-M-14 and CTX-M-15 (Class A, Group 2be beta-lactamases, hydrolyzes extended spectrum cephalosporins and monobactams);
as §8

[5] = tested on: Isogenic E. coli J58 strain carrying CTX-M-15; settings: for Mimimum Inhibitory Concentrations, CTX-M-15: isogenic E. coli strain, CAMH broth, 20 μM Apo-Transferrin, 37° C., 18 hours; for MIC: Escherichia coli, 18 h, read-out: Mimimum Inhibitory Concentrations, CTX-M-15
Experimental: as §1, §2, §3, §4, §5, §6, §7, §9, §8

[6] = tested on: Isogenic E. coli J58 strain carrying KPC-2; settings: for Mimimum Inhibitory Concentrations, KPC-2: isogenic E. coli strain, CAMH broth, 20 μM Apo-Transferrin, 37° C., 18 hours; for MIC: Escherichia coli, 18 h, read-out: Mimimum Inhibitory Concentrations, KPC-2
Experimental: as §1, §2, §3, §4, §5, §6, §7
(§10) KPC-2 and KPC-3 (Class A, Group 2f, carbapenemases);
as §8

[7] = tested on: Isogenic E. coli J58 strain carrying KPC-3; settings: for Mimimum Inhibitory Concentrations, KPC-3: isogenic E. coli strain, CAMH broth, 20 μM Apo-Transferrin, 37° C., 18 hours; for MIC: Escherichia coli, 18 h, read-out: Mimimum Inhibitory Concentrations, KPC-3
Experimental: as §1, §2, §3, §4, §5, §6, §7, §10, §8

[8] = tested on: Isogenic E. coli J58 strain carrying NDM-1; settings: for Mimimum Inhibitory Concentrations, NDM-1: isogenic E. coli strain, CAMH broth, 20 μM Apo-Transferrin, 37° C., 18 hours; for MIC: Escherichia coli, 18 h, read-out: Mimimum Inhibitory Concentrations, NDM-1
Experimental: as §1, §2, §3, §4, §5, §6, §7
NDM-1 (Group 3a carbapenemase, broad spectrum divalent Zn^++ metallo-Beta-Lactamase);
as §8

[9] = tested on: Isogenic E. coli J58 strain carrying VIM-2; settings: for Mimimum Inhibitory Concentrations, VIM-2: isogenic E. coli strain, CAMH broth, 20 μM Apo-Transferrin, 37° C., 18 hours; for MIC: Escherichia coli, 18 h, read-out: Mimimum Inhibitory Concentrations, VIM-2
Experimental: as §1, §2, §3, §4, §5, §6, §7
VIM-2 (Group 3a carbapenemase, metallo-beta-lactamase); and
as §8

[10] = tested on: Isogenic E. coli J58 strain carrying IMP-1; settings: for Mimimum Inhibitory Concentrations, IMP-1: isogenic E. coli strain, CAMH broth, 20 μM Apo-Transferrin, 37° C., 18 hours; for MIC: Escherichia coli, 18 h, read-out: Mimimum Inhibitory Concentrations, IMP-1; for MICs for an E. coli strain carrying the gene for carbapenemase IMP-1, in words: review of Tables 4-1 and 4-2
Experimental: as §1, §2, §3, §4, §5, §6, §7
IMP-1 (Group 3a carbapenemase, metallo-beta-Lactamase).
as §8

Row | Compound | Mimimum Inhibitory Concentrations, J53 Alone (E. coli J53 Alone; Table 4-1) [microgram/mL] | Mimimum Inhibitory Concentrations, J53 Alone (E. coli J53 Alone; Table 4-2) [microgram/mL] | Mimimum Inhibitory Concentrations, DHA-1 [1] [microgram/mL] | Mimimum Inhibitory Concentrations, TEM-26 [2] [microgram/mL] | Mimimum Inhibitory Concentrations, SHV-1 [3] [microgram/mL] | Mimimum Inhibitory Concentrations, CTX-M-14 [4] [microgram/mL] | Mimimum Inhibitory Concentrations, CTX-M-15 [5] [microgram/mL] | Mimimum Inhibitory Concentrations, KPC-2 [6] [microgram/mL] | Mimimum Inhibitory Concentrations, KPC-3 [7] [microgram/mL] | MIC (E. coli J53 Alone) [µg/mL] | MIC [1] [µg/mL] | MIC [2] [µg/mL] | MIC [3] [µg/mL] | MIC [4] [µg/mL] | MIC [5] [µg/mL] | MIC [6] [µg/mL] | MIC [7] [µg/mL] | MIC [8] [µg/mL] | MIC [9] [µg/mL] | MIC [10] [µg/mL] | other results
1 | CO/N=C(\C(=O)N[C@@H]1C(=O)N2C(C(=O)O)=C(C=Cc3ccc(C[n+]4ccc(OC)c(OC)c4)cc3[N+](=O)[O-])CS[C@H]12)c1csc(N)n1 (mixture of isomers) [Compound 392, 1-(4-((E/Z)-2-((6R,7R)-7-((Z)-2-(2-aminothiazol-4-yl)-2-(methoxyimino)acetamido)-2-carboxy-8-oxo-5-thia-1-azabicyclo[4.2.0]oct-2-en-3-yl)vinyl)-3-nitrobenzyl)-3,4-dimethoxypyridin-1-ium] | 64 | 64 | >64 | 32 | >64 | >64 | >64 | >64 | >64 |  |  |  |  |  |  |  |  |  |  |  | Mimimum Inhibitory Concentrations, NDM-1 [8]: >64 microgram/mL; Mimimum Inhibitory Concentrations, VIM-2 [9]: >64 microgram/mL; Mimimum Inhibitory Concentrations, IMP-1 [10]: >64 microgram/mL
2 | COc1cc[n+](Cc2ccc(C=CC3=C(C(=O)O)N4C(=O)[C@@H](NC(=O)/C(=N\OC(C)(C)C(=O)O)c5csc(N)n5)[C@H]4SC3)cc2)cc1OC (mixture of isomers) [Compound 402, 1-(4-((E/Z)-2-((6R,7R)-7-((Z)-2-(2-aminothiazol-4-yl)-2-(((2-carboxypropan-2-yl)oxy)imino)acetamido)-2-carboxy-8-oxo-5-thia-1-azabicyclo[4.2.0]oct-2-en-3-yl)vinyl)benzyl)-3,4-dimethoxypyridin-1-ium] |  | 0.5 |  |  |  |  |  |  |  | 0.5 | 1 | 4 | 2 | 4 | > 64 | 64 | 16 | > 64 | 4 | > 64 | 
3 | Cn1c[n+](Cc2ccc(C=CC3=C(C(=O)O)N4C(=O)[C@@H](NC(=O)/C(=N\OC(C)(C)C(=O)O)c5csc(N)n5)[C@H]4SC3)cc2)c2cc(O)c(O)cc21 (mixture of isomers) [Compound 415, 3-(4-((E/Z)-2-((6R,7R)-7-((Z)-2-(2-aminothiazol-4-yl)-2-(((2-carboxypropan-2-yl)oxy)imino)acetamido)-2-carboxy-8-oxo-5-thia-1-azabicyclo[4.2.0]oct-2-en-3-yl)vinyl)benzyl)-5,6-dihydroxy-1-methyl-1H-benzo[d]imidazol-3-ium] |  | 0.5 |  |  |  |  |  |  |  | 0.5 | 0.5 | 1 | 1 | 2 | 1 | 16 | 8 | > 64 | 1 | 16 | 
4 | CC(C)(O/N=C(\C(=O)N[C@@H]1C(=O)N2C(C(=O)O)=C(C=Cc3ccc(C[N+]4(C)CCc5cc(O)c(O)cc5C4)cc3)CS[C@H]12)c1nsc(N)n1)C(=O)O (mixture of isomers) [Compound 437, 2-(4-((E/Z)-2-((6R,7R)-7-((Z)-2-(5-amino-1,2,4-thiadiazol-3-yl)-2-(((2-carboxypropan-2-yl)oxy)imino)acetamido)-2-carboxy-8-oxo-5-thia-1-azabicyclo[4.2.0]oct-2-en-3-yl)vinyl)benzyl)-6,7-dihydroxy-2-methyl-1,2,3,4-tetrahydroisoquinolin-2-ium] | 0.25 | 0.25 | 0.5 | 1 | 2 | 4 | 0.5 | 16 | 2 |  |  |  |  |  |  |  |  |  |  |  | Mimimum Inhibitory Concentrations, NDM-1 [8]: >64 microgram/mL; Mimimum Inhibitory Concentrations, VIM-2 [9]: 1 microgram/mL; Mimimum Inhibitory Concentrations, IMP-1 [10]: 0.13 microgram/mL; MICs for an E. coli strain carrying the gene for carbapenemase IMP-1, in words [10]: low microgram/mL MICs
5 | CC(C)(O/N=C(\C(=O)N[C@@H]1C(=O)N2C(C(=O)O)=C(C=Cc3ccc(C[N+](C)(C)CCc4ccc(O)c(O)c4)cc3)CS[C@H]12)c1csc(N)n1)C(=O)O (mixture of isomers) [Compound 440, N-(4-((E/Z)-2-((6R,7R)-7-((Z)-2-(2-aminothiazol-4-yl)-2-(((2-carboxypropan-2-yl)oxy)imino)acetamido)-2-carboxy-8-oxo-5-thia-1-azabicyclo[4.2.0]oct-2-en-3-yl)vinyl)benzyl)-2-(3,4-dihydroxyphenyl)-N,N-dimethylethan-1-aminium] |  | 0.25 |  |  |  |  |  |  |  | 0.25 | 0.25 | 1 | 1 | 2 | 0.25 | 16 | 4 | > 64 | 0.25 | 0.13 | MICs for an E. coli strain carrying the gene for carbapenemase IMP-1, in words [10]: low microgram/mL MICs
6 | CC(C)(O/N=C(\C(=O)N[C@@H]1C(=O)N2C(C(=O)O)=C(C=Cc3ccc(C[N+]4(C)CCc5c(ccc(O)c5O)C4)cc3)CS[C@H]12)c1csc(N)n1)C(=O)O (mixture of isomers) [Compound 441, 2-(4-((E/Z)-2-((6R,7R)-7-((Z)-2-(2-aminothiazol-4-yl)-2-(((2-carboxypropan-2-yl)oxy)imino)acetamido)-2-carboxy-8-oxo-5-thia-1-azabicyclo[4.2.0]oct-2-en-3-yl)vinyl)benzyl)-5,6-dihydroxy-2-methyl-1,2,3,4-tetrahydroisoquinolin-2-ium] |  | 0.25 |  |  |  |  |  |  |  | 0.25 | 0.5 | 1 | 1 | 1 | 0.5 | 4 | 1 | > 64 | 0.25 | 1 | 
